Test results from patent US6713048B2, “Δ9 tetrahydrocannabinol (Δ9 THC) solution metered dose inhalers and methods of use” (Virginia Commonwealth University, priority 1998, dated 2004).
“Also recorded” adds a separate entry of the source.

Legend:
[1] = tested on: Spasticity and pain due to spinal cord injury; conditions: oral THC (5 mg) or codeine (50 mg); 1 patient; cited from earlier work
[2] = tested on: Nausea and emesis due to Cancer chemotherapy; conditions: oral 15 mg THC, 10 mg prochloperzine or placebo; 116 patients; cited from earlier work
mice = conditions: cited from earlier work
Male ICR mice [3] = experiment: Hypothermia, rectal temperature; format: in vivo; conditions: SR 141716A 10 mg/kg i.p. 5 min before 60 actuations of Δ^9-THC MDI
Protocol: (§1) Male ICR mice, weighing approximately 30 g, obtained from Harlan Laboratories (Indianapolis, Ind.) were provided a light cycle of approximately 6 a.m. to 6 p.m., and the temperature remained approximately 23° C. The mice were placed in the lab and allowed to accommodate to the surroundings the evening prior to testing. Animals were allowed food (Harlan Teklab, Madison, Wis.) and water ad libitum.
(§2) The exposure chamber was a modified, inverted, 1-liter separation funnel, housed under a fume hood, which allowed four mice to be simultaneously exposed to the aerosol. […]
(§3) A ring-test procedure was used to assess catalepsy. The percent of time during a five minute observation period that mice remained motionless, except for movements related to respiration, while stationed on a 5.7 cm diameter ring stand 23 cm above the laboratory bench, was assessed. Body temperature was assessed by inserting a thermometer probe (Traceable Digital, Control Co., Friendswood, Tex.) 2.5 cm into the rectum. Subjects were assessed for baseline tail-flick latency and rectal temperature prior to drug or vehicle administration. […] Locomotor activity, tail-flick latency, catalepsy, and hypothermia were assessed 5, 20, 40, and 60 minutes, respectively, after aerosol exposure. […]

Male ICR mice [4] = experiment: Antinociception, tail-flick test; format: in vivo
Protocol: as §1
The exposure chamber was a modified, inverted, 1-liter separation funnel, housed under a fume hood, which allowed four mice to be simultaneously exposed to the aerosol. Air was drawn through the chamber at a rate of approximately 60 ml/minute and filtered through glass wool (Corning Inc., Corning, N.Y.) and charcoal traps (SKC Inc., Eighty Four, Pa.) upon exiting the exposure chamber. Each actuation of Δ^9-THC or vehicle was delivered once per 5 s and the entire exposure period was 10 min. Mice were exposed to 20, 40 or 60 actuations of aerosolized Δ^9-THC or 60 actuations of vehicle.
Mice were placed in separate clear chambers (16.5 cm×25.5 cm×11.5 cm high) and assessed for hypomotility using a Digiscan Animal Activity Monitor (Omnitech Electronics Inc., Columbus, Ohio) in which the total number of photocell-light beam interruptions was counted. Antinociception was assessed in the tail-flick test (D'Amour, F. E., Smith, D. L., A method for determining loss of pain sensation, J Pharm Exp Ther, 72:74-79 (1941)) with heat intensity adjusted to give baseline latencies ranging from 2.0-4.0 seconds. A cut-off time of 10 seconds was used to limit tissue damage. Percent maximum possible effect (%MPE) was determined according to the following formula:
%MPE=[(test latency-baseline latency)/(cut-off-baseline latency)]*100
A ring-test procedure was used to assess catalepsy. The percent of time during a five minute observation period that mice remained motionless, except for movements related to respiration, while stationed on a 5.7 cm diameter ring stand 23 cm above the laboratory bench, was assessed. Body temperature was assessed by inserting a thermometer probe (Traceable Digital, Control Co., Friendswood, Tex.) 2.5 cm into the rectum. Subjects were assessed for baseline tail-flick latency and rectal temperature prior to drug or vehicle administration. […] Locomotor activity, tail-flick latency, catalepsy, and hypothermia were assessed 5, 20, 40, and 60 minutes, respectively, after aerosol exposure. An additional group of animals was given an i.v. injection of Δ^9-THC (0.3, 1, 3, or 10 mg/kg) or vehicle into a lateral tail vein and assessed in the tail-flick test 20 minutes later. All injections were given in a volume of 0.1 ml per 10 g animal weight.
The statistical analysis of the data was as follows. Data are represented by means±standard error (s.e.). Statistical analysis of the data was performed using Student t-tests (for the physiochemical comparisons of the aerosol), or ANOVA (for pharmacological studies), with significance set at p<0.05. Post hoc tests for significant ANOVAs included either Dunnett's test or Tukey/Kramer post-hoc analysis. […] A sample size of 6-8 mice was used in each group.

Male ICR mice [5] = experiment: Catalepsy, ring-test (ring immobility); format: in vivo; conditions: SR 141716A 10 mg/kg i.p. 5 min before 60 actuations of Δ^9-THC MDI
Protocol: as §1, §2, §3

Male ICR mice [6] = experiment: Locomotor activity (hypomotility), Digiscan Animal Activity Monitor; format: in vivo; conditions: SR 141716A 10 mg/kg i.p. 5 min before 60 actuations of Δ^9-THC MDI
Protocol: Mice were placed in separate clear chambers (16.5 cm×25.5 cm×11.5 cm high) and assessed for hypomotility using a Digiscan Animal Activity Monitor (Omnitech Electronics Inc., Columbus, Ohio) in which the total number of photocell-light beam interruptions was counted. Antinociception was assessed in the tail-flick test (D'Amour, F. E., Smith, D. L., A method for determining loss of pain sensation, J Pharm Exp Ther, 72:74-79 (1941)) with heat intensity adjusted to give baseline latencies ranging from 2.0-4.0 seconds. […] Percent maximum possible effect (%MPE) was determined according to the following formula:
A ring-test procedure was used to assess catalepsy. […] Body temperature was assessed by inserting a thermometer probe (Traceable Digital, Control Co., Friendswood, Tex.) 2.5 cm into the rectum. […]

COc1ccc2c3c1O[C@H]1[C@@H](O)C=C[C@H]4[C@@H](C2)N(C)CC[C@@]341 [codeine]
effect on spasticity [1]: codeine did not

CN1CCN(CCCN2c3ccccc3Sc3ccc(Cl)cc32)CC1 [prochlorperazine]
antiemetic effect compared with placebo [2]: each greater than placebo;
antiemetic effects, THC vs prochlorperazine [2]: Equal antiemetic effects

Cc1c(C(=O)NN2CCCCC2)nn(-c2ccc(Cl)cc2Cl)c1-c1ccc(Cl)cc1 [SR 141716A]
ED50 in antagonizing antinociceptive effects (mice; exposure to marijuana smoke (Lichtman et al., 2001)): 0.6 mg/kg
antagonism of effects of marijuana smoke (mice; mice exposed to marijuana smoke (Lichtman et al., 2001)): only effectively antagonized the antinociceptive response
antagonism of Δ^9-THC-induced hypothermia (Male ICR mice [3]): significantly blocked; also recorded: not completely antagonized; also recorded: significantly antagonized
antagonism of Δ^9-THC-induced antinociception (Male ICR mice [4]; SR 141716A 10 mg/kg i.p. 5 min before 60 actuations of Δ^9-THC MDI): significantly blocked; also recorded: significantly antagonized
AD50 (95% C.L.) in antagonizing the antinociceptive effects of inhaled Δ^9-THC (Male ICR mice [4]; i.p. pretreatment, exposure to Δ^9-THC): 0.8 mg/kg
antagonism of Δ^9-THC-induced catalepsy (Male ICR mice [5]): significantly blocked; also recorded: significantly antagonized
antagonism of Δ^9-THC-induced hypomotility (Male ICR mice [6]): significantly blocked; also recorded: significantly antagonized
